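Where inhibition never reached the appropriate level, the endpoint shown equals the highest concentration tested. Otherwise, values were interpolated linearly from a five-concentration, 48-hour dose response in 96-well plates. The concentration for 50% growth inhibition is given as GI50. Definition used: TGI = concentration required for complete inhibition of growth.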
How the values were obtained:
Assay in all cases: NCI-60 cell line screen, 48 h
[1] = system: SK-OV-3 ovarian
[2] = system: CAKI-1 renal
[3] = system: BT-549 breast
[4] = system: SR leukemia
[5] = system: SK-MEL-28 melanoma
[6] = system: HT29 colon
[7] = system: MDA-MB-435
[8] = system: SF-295 CNS
[9] = system: NCI-H522 lung
[10] = system: SW-620 colon
[11] = system: MALME-3M melanoma
[12] = system: MOLT-4 leukemia
[13] = system: SNB-19 CNS
[14] = system: NCI-H23 lung
[15] = system: PC-3 prostate
[16] = system: HS 578T breast
[17] = system: CCRF-CEM leukemia
[18] = system: UACC-62 melanoma
[19] = system: RPMI-8226 leukemia
[20] = system: DU-145 prostate
[21] = system: NCI-H226 lung
[22] = system: OVCAR-4 ovarian
[23] = system: HL-60(TB) leukemia
[24] = system: SF-268 CNS
[25] = system: UACC-257 melanoma
[26] = system: HCT-116 colon
[27] = system: MCF7 breast
[28] = system: M14 melanoma
[29] = system: SF-539 CNS
[30] = system: 786-0 renal

With `C#CCN(C)CCCOc1ccc(N(C)C(=O)c2cc(C(C)C)c(O)cc2O)cc1Cl` as the compound, how does the GI50 [1] read?
Its GI50 is 0.0534 µM.

And the TGI [1]?
Its TGI is 12.9 µM.

And the GI50 [2]?
The GI50 was 0.325 µM.

And the TGI [2]?
The TGI was 14.9 µM.

What about the GI50 [3] of the same compound?
The GI50 was 1.09 µM.

What about the TGI [3] of the same compound?
The TGI was 15.4 µM.

And the GI50 [4]?
Its GI50 is 0.0409 µM.

What about the TGI [4] of the same compound?
Its TGI is 19.4 µM.

What about the GI50 [5] of the same compound?
The GI50 was 0.386 µM.

What about the TGI [5] of the same compound?
The TGI was 13.3 µM.

What about the GI50 [6] of the same compound?
The GI50 was 3.27 µM.

What about the TGI [6] of the same compound?
The TGI was 13.9 µM.

And the GI50 [7]?
The GI50 was 0.133 µM.

What about the TGI [7] of the same compound?
The TGI was 12.4 µM.

What about the GI50 [8] of the same compound?
The GI50 was 0.348 µM.

What about the TGI [8] of the same compound?
The TGI was 12.7 µM.

And the GI50 [9]?
Its GI50 is 0.165 µM.

And the TGI [9]?
The TGI was 14.1 µM.

What about the GI50 [10] of the same compound?
Its GI50 is 0.102 µM.

And the TGI [10]?
The TGI was 13.9 µM.

What about the GI50 [11] of the same compound?
Its GI50 is 0.195 µM.

What about the TGI [11] of the same compound?
Its TGI is 2.23 µM.

And the GI50 [12]?
Its GI50 is 0.101 µM.

And the TGI [12]?
The TGI was 12.5 µM.

What about the GI50 [13] of the same compound?
Its GI50 is 0.435 µM.

What about the TGI [13] of the same compound?
Its TGI is 15.4 µM.

What about the GI50 [14] of the same compound?
The GI50 was 0.298 µM.

What about the TGI [14] of the same compound?
The TGI was 15 µM.

What about the GI50 [15] of the same compound?
Its GI50 is 0.161 µM.

And the TGI [15]?
Its TGI is 16 µM.

What about the GI50 [16] of the same compound?
The GI50 was 1.33 µM.

And the TGI [16]?
The TGI was 27.1 µM.

And the GI50 [17]?
Its GI50 is 0.0625 µM.

What about the TGI [17] of the same compound?
The TGI was 13.3 µM.

And the GI50 [18]?
Its GI50 is 0.168 µM.

What about the TGI [18] of the same compound?
The TGI was 0.913 µM.

And the GI50 [19]?
Its GI50 is 0.266 µM.

And the TGI [19]?
Its TGI is 20.5 µM.

And the GI50 [20]?
Its GI50 is 0.0592 µM.

What about the TGI [20] of the same compound?
Its TGI is 18.2 µM.

What about the GI50 [21] of the same compound?
Its GI50 is 0.557 µM.

And the TGI [21]?
Its TGI is 19.8 µM.

What about the GI50 [22] of the same compound?
Its GI50 is 2.01 µM.

What about the TGI [22] of the same compound?
Its TGI is 22.2 µM.

What about the GI50 [23] of the same compound?
The GI50 was 0.0533 µM.

And the TGI [23]?
The TGI was 9.1 µM.

What about the GI50 [24] of the same compound?
The GI50 was 1.32 µM.

What about the TGI [24] of the same compound?
Its TGI is 25.9 µM.

What about the GI50 [25] of the same compound?
The GI50 was 0.521 µM.

What about the TGI [25] of the same compound?
The TGI was 13.8 µM.

And the GI50 [26]?
The GI50 was 0.0889 µM.

And the TGI [26]?
Its TGI is 13.3 µM.

What about the GI50 [27] of the same compound?
The GI50 was 0.0522 µM.

And the TGI [27]?
The TGI was 15.4 µM.

What about the GI50 [28] of the same compound?
The GI50 was 0.406 µM.

What about the TGI [28] of the same compound?
The TGI was 13.8 µM.

And the GI50 [29]?
Its GI50 is 0.325 µM.

What about the TGI [29] of the same compound?
Its TGI is 12.9 µM.

What about the GI50 [30] of the same compound?
Its GI50 is 2.6 µM.
